Patent publication US20240246995A1, “PYRIMIDINONE DERIVATIVE AND PREPARATION METHOD THEREFOR, PHARMACEUTICAL COMPOSITION, AND USE” (SHANGHAI SIMR BIOTECHNOLOGY CO., LTD., priority 2021, published 2024)

Target: T1, Lipoprotein-Related Phospholipase A2 (Lp-PLA2) in Human Plasma (Homo sapiens, UniProt Q13093)
T1 construct: 40 μL of equally-divided and thawed mixed human plasma is pre-added; from tissue; host or cells: mixed (pooled) human plasma
T1 sequence (Q13093 22-441): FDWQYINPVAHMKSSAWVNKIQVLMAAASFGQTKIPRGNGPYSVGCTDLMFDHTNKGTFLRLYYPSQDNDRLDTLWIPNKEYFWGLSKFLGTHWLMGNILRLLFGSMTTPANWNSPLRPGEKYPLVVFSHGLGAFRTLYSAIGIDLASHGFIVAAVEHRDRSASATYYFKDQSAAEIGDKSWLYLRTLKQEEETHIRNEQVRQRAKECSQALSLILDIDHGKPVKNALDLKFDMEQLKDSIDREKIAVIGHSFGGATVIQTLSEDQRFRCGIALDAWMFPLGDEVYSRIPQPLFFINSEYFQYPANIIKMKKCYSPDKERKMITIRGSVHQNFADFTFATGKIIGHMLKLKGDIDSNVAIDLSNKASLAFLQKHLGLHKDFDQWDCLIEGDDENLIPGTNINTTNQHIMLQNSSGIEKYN
Assay: Determination of Lp-PLA2 in human plasma (Thio-PAF assay)
Format: biochemical
Conditions: mixed human plasma, 2-thio-PAF substrate, 30 minutes pre-incubation at room temperature
From the text: Determination of Lipoprotein-Related Phospholipase A2 (Lp-PLA2) in Human Plasma.
Human plasma determination utilizes a thioester analogue of phosphatidylcholine (PAF), where hydrolysis leads to the formation of phospholipids containing free thiol groups. The amount of the thiol groups is continuously determined by reacting with CPM (7-diethylamino-3-(4′-maleimidophenyl)-4-methylcoumarin), which is maleimide with increased fluorescence after Michael addition of the thiol groups. This determination can detect the activity of Lp-PLA2 in human plasma, for example, determined by the specific inhibition of the Lp-PLA2 inhibitors.
Thio-PAF determination, as quenched 75 μL determination, is carried out. A compound source plate is prepared by preparing a 1:3 (volume) series of diluents of each compound in pure DMSO on a 96-well microplate. A Rainin multi-channel pipette is used to transfer 3 μL of a compound on the compound source plate into a 96-well microplate where 57 μL of a determination buffer is pre-added, and the compound on the source plate is diluted by 20 folds. The above determination buffer contains 50 mM HEPES (pH 7.4), 150 mM NaCl, and 1 mM CHAPS. A Rainin multi-channel pipette is used to transfer 1 μL of the compound subjected to 20-fold dilution into a 96-well Greiner 655076 (black) microplate where 40 μL of equally-divided and thawed mixed human plasma is pre-added. The plate is oscillated for 20 seconds in an Elisa plate oscillator to be mixed evenly. After 30 minutes of pre-incubation at the room temperature, a Rainin multi-channel pipette is used to add 10 μL of a substrate solution to a 96-well Greiner 655076 (black) microplate, and the substrate solution contains 2.5 mM 2-thio-PAF [from ethanol mother liquor], 32 μM CPM [from DMSO mother liquor] and 3.2 mM NEM (N-ethylmaleimide) [newly prepared in DMSO for each experiment] in a determination buffer composed of 50 mM HEPES (pH 7.4), 150 mM NaCl, and 1 mM CHAPS. After 2 minutes, 25 μL of a 5% trifluoroacetic acid (TFA) aqueous solution is used for quenching the reaction. The plate is centrifuged at 2000 rpm for 1 minute. A Biotek Synergy H1 (H1MF) Elisa reader is used to read the plate at ex:380/em:485. GraphPad Prism 6.0 and Excel are used for IC50 data, curve, and QC analysis.

| IC50 | SMILES |
| --- | --- |
| 5 nM | O=c1nc(OCc2ccc(Oc3ccnc(C(F)(F)F)c3)c(F)c2)cc2n1CC[C@]13CO[C@H](CN21)C3 [Example 1, (7aS,10S)-2-((3-fluoro-4-((2-(trifluoromethyl)pyrid-4-yl)oxy)benzyl)oxy)-6,7,10,11-tetra hydro-4H,8H-7a,10-methanopyrimido[6′,1′:2,3]pyrimido[6,1-c][1,4]oxazin-4-one] |
| 7.7 nM | O=c1nc(OCc2cc(F)c(Oc3ccnc(C(F)(F)F)c3)c(F)c2)cc2n1CC[C@]13CO[C@H](CN21)C3 [Example 3] |
| 11.2 nM | Cc1cc(Oc2c(F)cc(COc3cc4n(c(=O)n3)CC[C@]35CO[C@H](CN43)C5)cc2F)ccn1 [Example 4] |
| 4.5 nM | N#Cc1cc(COc2cc3n(c(=O)n2)CC[C@]24CO[C@H](CN32)C4)ccc1Oc1cccc(C(F)(F)F)c1 [Example 5] |
| 5 nM | O=c1nc(OCc2cc(F)c(Oc3ccnc(Cl)c3)c(F)c2)cc2n1CC[C@]13CO[C@H](CN21)C3 [Example 6] |
| 3.6 nM | O=c1nc(OCc2cc(F)c(Oc3ccnc(OC(F)(F)F)c3)c(F)c2)cc2n1CC[C@]13CO[C@H](CN21)C3 [Example 7] |
| 8.1 nM | O=c1nc(OCc2ccc(Oc3ccnc(C(F)F)c3)c(F)c2)cc2n1CC[C@]13CO[C@H](CN21)C3 [Example 8] |
| 6.3 nM | O=c1nc(OCc2cc(F)c(Oc3cnc(C(F)(F)F)nc3)c(F)c2)cc2n1CC[C@]13CO[C@H](CN21)C3 [Example 9] |
| 10.8 nM | N#Cc1cc(COc2cc3n(c(=O)n2)CC[C@]24CO[C@H](CN32)C4)ccc1F [Example 10] |
| 8.9 nM | O=c1nc(OCCc2ccc(Oc3ccc(Cl)c(C(F)(F)F)c3)cc2)cc2n1CC[C@]13CO[C@H](CN21)C3 [Example 11, (7aS, 10S)-2-(4-(4-chloro-3-(trifluoro-methyl)phenoxy)phenylethoxy)-6,7, 10,11-tetrahydro-4H,8H-7a,10-methanopyrimido [6′,1′:2,3]pyrimido [6,1-c][1,4]oxazin-4-one] |
| 8.3 nM | O=c1nc(OCc2cc(F)c(Oc3ccnc(C(F)(F)F)c3)c(F)c2)cc2n1CCC13CC(CN21)C3 [Example 12, 2-((3,5-difluoro-4-((2-(trifluoromethyl)pyrid-4-yl)oxy)benzyl)oxy)-6,7,9,10-tetrahydro-4H, 8H-7a,9-methano-pyrimido[1,6-a] pyrrolo[1,2-c]pyri-midine-4-one] |
| 8.3 nM | O=c1nc(OCc2ccc(Oc3ccnc(C(F)(F)F)c3)c(F)c2)cc2n1CCC13CC(CN21)C3 [Example 13, 2-((3-fluoro-4-((2-(trifluoromethyl)pyrid-4-yl)oxy)benzyl)oxy)-6,7,9,10-tetrahydro-4H,8H-7a,9-methanopyri-mido[1,6-a]pyrrolo [1,2-c]pyrimidine-4-one] |
| 8.8 nM | O=c1nc(OCc2cc(F)c(Oc3ccc(Cl)c(C(F)(F)F)c3)c(F)c2)cc2n1CCC13CC(CN21)C3 [Example 14, 2-((4-(4-chloro-3-(trifluoromethyl)phenoxy)-3,5-di-fluorobenzyl)oxy)-6,7,9,10-tetrahydro-4H,8H-7a,9-methanopyrimido [1,6-a]pyrrolo[1,2-c] pyrimidine-4-one] |
| 27.6 nM | Cc1cc(Oc2c(F)cc(COc3cc4n(c(=O)n3)CCC35CC(CN43)C5)cc2F)ccn1 [Example 15, 2-((3,5-difluoro-4-((2-methylpyrid-4-yl)oxy)benzyl)oxy)-6,7,9,10-tetra-hydro-4H,8H-7a,9-methanopyrimido [1,6-a]pyrrolo[1,2-c]pyrimidine-4-one] |
| 9.2 nM | N#Cc1cc(COc2cc3n(c(=O)n2)CCC24CC(CN32)C4)ccc1Oc1cccc(C(F)(F)F)c1 [Example 16] |
| 21.5 nM | O=c1nc(OCc2cc(F)c(Oc3ccnc(Cl)c3)c(F)c2)cc2n1CCC13CC(CN21)C3 [Example 17] |

| IC50 | SMILES |
| --- | --- |
| 11 nM | O=c1nc(OCc2cc(F)c(Oc3ccnc(OC(F)(F)F)c3)c(F)c2)cc2n1CCC13CC(CN21)C3 [Example 18] |
| 37 nM | O=c1nc(OCc2ccc(Oc3ccnc(C(F)F)c3)c(F)c2)cc2n1CCC13CC(CN21)C3 [Example 19] |
| 37.5 nM | O=c1nc(OCc2cc(F)c(Oc3cnc(C(F)(F)F)nc3)c(F)c2)cc2n1CCC13CC(CN21)C3 [Example 20, 2-((3,5-difluoro-4-((2-(trifluoromethyl)pyrimidin-5-yl)oxy)benzyl)oxy)-6,7,9,10-tetrahydro-4H,8H-7a,9-methano-pyrimido[1,6-a] pyrrolo[1,2-c] pyrimidine-4-one] |
| 24.2 nM | N#Cc1cc(COc2cc3n(c(=O)n2)CCC24CC(CN32)C4)ccc1F [Example 21] |
| 120 nM | O=c1nc(OCCc2ccc(Oc3ccc(Cl)c(C(F)(F)F)c3)cc2)cc2n1CCC13CC(CN21)C3 [Example 22, 2-(4-(4-chloro-3-(trifluoromethyl)phenoxy)phenyl-ethoxy)-6,7,9,10-tetrahydro-4H,8H-7a,9-methano-pyrimido [1,6-a]pyrrolo[1,2-c] pyrimidine-4-one] |
| 4.9 nM | O=c1nc(OCc2cc(F)c(Oc3ccnc(C(F)(F)F)c3)c(F)c2)cc2n1CC[C@@]13CO[C@@H](CN21)C3 [Example 23] |
| 6.5 nM | N#Cc1cc(COc2cc3n(c(=O)n2)CC[C@@]24CO[C@@H](CN32)C4)ccc1Oc1cccc(C(F)(F)F)c1 [Example 25] |
| 6.6 nM | O=c1nc(OCc2cc(F)c(Oc3ccnc(OC(F)(F)F)c3)c(F)c2)cc2n1CC[C@@]13CO[C@@H](CN21)C3 [Example 26] |
| 4.6 nM | O=c1nc(OCc2cc(F)c(Oc3cnc(C(F)(F)F)nc3)c(F)c2)cc2n1CC[C@@]13CO[C@@H](CN21)C3 [Example 27] |
| 13.3 nM | O=c1nc(OCCc2ccc(Oc3ccc(Cl)c(C(F)(F)F)c3)cc2)cc2n1CC[C@@]13CO[C@@H](CN21)C3 [Example 28, (7aR,10R)-2-(4-(4-chloro-3-(trifluoro-methyl)phenoxy)phenylethoxy)-6,7, 10,11-tetrahydro-4H,8H-7a,10-methanopyrimido [6′,1′:2,3] pyrimido[6,1-c] [1,4]oxazin-4-one] |
| 54.1 nM | O=c1nc(OCc2cc(F)c(Oc3ccnc(C(F)(F)F)c3)c(F)c2)cc2n1CCC1CCCN21 (stereo not shown) [Example 29, 2-((3,5-difluoro-4-((2-(trifluoromethyl)pyrid-4-yl)oxy)benzyl)oxy)-6,7,7a,8,9,10-hexahy-dro-4H-pyrimidinyl [1,6-a]pyrrolo [1,2-c]pyrimidine-4-one] |
| 97.1 nM | O=c1nc(OCc2cc(F)c(Oc3cnc(C(F)(F)F)nc3)c(F)c2)cc2n1CCC1CCCN21 (stereo not shown) [Example 31] |
| 45.7 nM | N#Cc1cc(COc2cc3n(c(=O)n2)CCC2CCCN32)ccc1Oc1cccc(C(F)(F)F)c1 (stereo not shown) [Example 32] |
| 24.7 nM | O=c1nc(OCc2cc(F)c(Oc3ccc(Cl)c(C(F)(F)F)c3)c(F)c2)cc2n1CCC1CCCN21 (stereo not shown) [Example 33, 2-((4-(4-chloro-3-(trifluoromethyl)phenoxy)-3,5-di-fluorobenzyl)oxy)-6,7,7a,8,9,10-hexahydro-4H-pyrimidinyl [1,6-a]pyrrolo [1,2-c]pyrimidine-4-one] |
| 9.9 nM | CC12CCCN1c1cc(OCc3ccc(Oc4ccnc(C(F)(F)F)c4)c(F)c3)nc(=O)n1CC2 (stereo not shown) [Example 34, 2-((3-fluoro-4-((2-(trifluoromethyl)pyrid-4-yl)oxy)benzyl)oxy)-7a-methyl-6,7,7a,8,9,10-hexahydro-4H-pyri-midinyl[1,6-a] pyrrolo[1,2-c] pyrimidine-4-one] |
